Source: PubChem BioAssay AID2060500 (Molecular Pharmacology Branch, DTP, NCI, 2025)

Tested on: 596521-263-R-J1-PDC complex spheroids, viability % of control
Assay: Anticancer human tumor 596521-263-R-J1-PDC patient-derived soft tissue sarcoma cell line growth inhibition [GQUAD]
Conditions: for IC50: curve of first compound; for viability, T/C: stronger effect = lower value; active = viability on the fitted dose curve at most 10% of control; inactive = the rest
Source text: DNA G-quadruplex Stabilizer Agents in Combinations in Complex Spheroids
A high-throughput screen of multi-cell type tumor spheroids was designed to identify active combinations of DNA G-quadruplex stabilizer agents and targeted small molecules. Complex spheroids include a stromal component modeled by human endothelial cells (HUVEC) and fibroblasts modeled by human mesenchymal stem cells (MSCs). The concentration ranges selected for each drug and investigational agent were based upon clinically achievable concentrations if the clinical Cmax of the agent was known.
Compounds. The drugs and investigational agents: pidnarulex (CX-5461; NSC782164), APTO-253 (NSC789042), BRACO-19 (NSC847499), peposertib (NSC802822), ceralasertib (NSC780249), elimusertib (NSC800525), camonsertib (NSC841442), AZD-1390 (NSC803789), olaparib (NSC753686), talazoparib (NSC767125), ART-558 (NSC835418), sotorasib (NSC818433), MRTX-1133 (NSC836407), SN-38 (NSC673596), topotecan (NSC609699), etoposide (NSC141540), doxorubicin (NSC123127), gemcitabine (NSC613327), 5-fluorouracil (NSC19893), paclitaxel (NSC125973), vemurafenib (NSC761431), panobinostat (NSC761190), R-306465 (JNJ-16241199; NSC773264), adavosertib (NSC754352), TP-3654 (NSC805149), carboplatin (NSC241240), KSQ-4279 (NSC840948), and staurosporine (NSC755774) were obtained from the National Cancer Institute (NCI) Developmental Therapeutics Program Chemical Repository (34). The FDA-approved anticancer drug set is available from the NCI Developmental Therapeutics Program. […] The stock solutions were prepared in dimethyl sulfoxide (DMSO, Sigma-Aldrich, St. Louis, MO, cat. D2650) at 800-fold the tested concentration and stored at -70 degrees C prior to their use. All drugs and investigational agents were tested over a range starting from a high concentration at or near the clinical Cmax and decreasing in half-log increments. If the clinical Cmax for an agent had not been determined, the highest concentration tested was 10 microM.
2.3 Cell Culture. All cells were maintained in an incubator at 37 degrees C and 5% CO2 with 95% humidity. The PDC lines were cultured according to standard operating procedures established by the NCI PDMR. All PDCs were thawed and cultured in Matrigel-coated flasks prepared with a working solution of 1X Ham's F-12 nutrient mix, without supplementation (Invitrogen, cat. 11765054), 100 U/mL penicillin-streptomycin (Invitrogen, cat. 15140122), and 2.5% Matrigel (Corning Inc., cat. 354248) for the first three passages. The 857933-349-R-J2-PDC line was cultured in 6C/Colon 1B media, which includes advanced DMEM/F-12 (Thermo Fisher Scientific, cat. 12634028), 10 mM HEPES (Thermo Fisher Scientific, cat. 15630080), 1X GlutaMAX supplement (Thermo Fisher Scientific, cat. 35050061), 0.1 mg/mL primocin (InvivoGen, cat. ant-pm-2), 10% defined fetal bovine serum, heat inactivated (HyClone Laboratories Inc., cat. SH30070.03HI), 50% L-WRN conditioned media (ATCC, cat. CRL-3276), 1.25 mM N-Acetyl-L-cysteine (Sigma-Aldrich, cat. A9165), 10 mM nicotinamide (Sigma-Aldrich, cat. N0636), 1X B-27 supplement (Thermo Fisher Scientific, cat. 17504044), 1X N-2 supplement (Thermo Fisher Scientific, cat. 17502048), 10 microM Y-27632 dihydrochloride (Tocris Bioscience, cat. 1254), and 50 ng/mL human EGF recombinant protein (Thermo Fisher Scientific, cat. PHG0311). The 485176-168-R4-J1-PDC line was cultured in Panc media, which includes all 6C/Colon 1B media components plus 100 ng/mL human FGF-10 (Thermo Fisher Scientific, cat. 100-26), 500 nM SB-431542 (Selleckchem, cat. S1067), and gastrin (Tocris, cat. 3006).
[…]

[1] = second compound 0.0316 µM, first compound 0.0316 µM
[2] = second compound 0.0316 µM, first compound 0.1 µM
[3] = second compound 0.0316 µM, first compound 0.316 µM
[4] = second compound 0.0316 µM, first compound 1 µM
[5] = second compound 0.0316 µM, first compound 3.16 µM
[6] = second compound 0.0316 µM, first compound 10 µM
[7] = second compound 0.1 µM, first compound 0.0316 µM
[8] = second compound 0.1 µM, first compound 0.1 µM
[9] = second compound 0.1 µM, first compound 0.316 µM
[10] = second compound 0.1 µM, first compound 1 µM
[11] = second compound 0.1 µM, first compound 3.16 µM
[12] = second compound 0.1 µM, first compound 10 µM
[13] = second compound 0.316 µM, first compound 0.0316 µM
[14] = second compound 0.316 µM, first compound 0.1 µM
[15] = second compound 0.316 µM, first compound 0.316 µM
[16] = second compound 0.316 µM, first compound 1 µM
[17] = second compound 0.316 µM, first compound 3.16 µM
[18] = second compound 0.316 µM, first compound 10 µM
[19] = second compound 1 µM, first compound 0.0316 µM
[20] = second compound 1 µM, first compound 0.1 µM
[21] = second compound 1 µM, first compound 0.316 µM
[22] = second compound 1 µM, first compound 1 µM
[23] = second compound 1 µM, first compound 3.16 µM
[24] = second compound 1 µM, first compound 10 µM
[25] = second compound 3.16 µM, first compound 0.0316 µM
[26] = second compound 3.16 µM, first compound 0.1 µM
[27] = second compound 3.16 µM, first compound 0.316 µM
[28] = second compound 3.16 µM, first compound 1 µM
[29] = second compound 3.16 µM, first compound 3.16 µM
[30] = second compound 3.16 µM, first compound 10 µM
[31] = second compound 10 µM, first compound 0.0316 µM
[32] = second compound 10 µM, first compound 0.1 µM
[33] = second compound 10 µM, first compound 0.316 µM
[34] = second compound 10 µM, first compound 1 µM
[35] = second compound 10 µM, first compound 3.16 µM
[36] = second compound 10 µM, first compound 10 µM
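Note: spheroids exposed to drugs for 7 days before viability reading.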

Cc1cccc(N(C)C(=O)C2C(O)CCN2c2nc(C)cc(C(F)(F)F)c2C#N)c1 (centres undefined) + CN(C)c1ccc(Nc2c3ccc(NC(=O)CCN4CCCC4)cc3nc3cc(NC(=O)CCN4CCCC4)ccc23)cc1
inactive: viability, T/C [1] 108% | viability, T/C [2] 99% | viability, T/C [3] 89.8% | viability, T/C [4] 94.1% | viability, T/C [5] 101% | viability, T/C [6] 101% | viability, T/C [7] 118% | viability, T/C [8] 95.7% | viability, T/C [9] 91.6% | viability, T/C [10] 109% | viability, T/C [11] 95.5% | viability, T/C [12] 109% | viability, T/C [13] 102% | viability, T/C [14] 102% | viability, T/C [15] 100% | viability, T/C [16] 115% | viability, T/C [17] 113% | viability, T/C [18] 102% | viability, T/C [19] 90.6% | viability, T/C [20] 103% | viability, T/C [21] 105% | viability, T/C [22] 105% | viability, T/C [23] 97.6% | viability, T/C [24] 88% | viability, T/C [25] 88% | viability, T/C [26] 98.1% | viability, T/C [27] 95.8% | viability, T/C [28] 91% | viability, T/C [29] 85.9% | viability, T/C [30] 87.7% | viability, T/C [31] 62.7% | viability, T/C [32] 63.6% | viability, T/C [33] 72.9% | viability, T/C [34] 63.7% | viability, T/C [35] 58.8% | viability, T/C [36] 47.8%
> 10 µM: IC50 (second compound 0.0316 µM) | IC50 (second compound 0.1 µM) | IC50 (second compound 0.316 µM) | IC50 (second compound 1 µM) | IC50 (second compound 3.16 µM) | IC50 (second compound 10 µM)

O=C(c1cc(Cc2n[nH]c(=O)c3ccccc23)ccc1F)N1CCN(C(=O)C2CC2)CC1 + CN(C)c1ccc(Nc2c3ccc(NC(=O)CCN4CCCC4)cc3nc3cc(NC(=O)CCN4CCCC4)ccc23)cc1
inactive: viability, T/C [1] 112% | viability, T/C [2] 106% | viability, T/C [3] 101% | viability, T/C [4] 104% | viability, T/C [5] 86.2% | viability, T/C [6] 68% | viability, T/C [7] 108% | viability, T/C [8] 89.3% | viability, T/C [9] 97.4% | viability, T/C [10] 99% | viability, T/C [11] 88.3% | viability, T/C [12] 67.9% | viability, T/C [13] 114% | viability, T/C [14] 103% | viability, T/C [15] 101% | viability, T/C [16] 103% | viability, T/C [17] 88.5% | viability, T/C [18] 74.3% | viability, T/C [19] 108% | viability, T/C [20] 98.2% | viability, T/C [21] 109% | viability, T/C [22] 99.2% | viability, T/C [23] 94.6% | viability, T/C [24] 69.2% | viability, T/C [25] 110% | viability, T/C [26] 89.6% | viability, T/C [27] 90.8% | viability, T/C [28] 89.9% | viability, T/C [29] 91% | viability, T/C [30] 70.8% | viability, T/C [31] 70.4% | viability, T/C [32] 62.2% | viability, T/C [33] 76.7% | viability, T/C [34] 72.4% | viability, T/C [35] 66.5% | viability, T/C [36] 59.9%
> 10 µM: IC50 (second compound 0.0316 µM) | IC50 (second compound 0.1 µM) | IC50 (second compound 0.316 µM) | IC50 (second compound 1 µM) | IC50 (second compound 3.16 µM) | IC50 (second compound 10 µM)
